Patent US20200297798A1, “KEY AMINO ACID SITES […] EXPORT OF NUC[…] INFLUENZA A AND B VIRUSES AND USE THEREOF AS ANTI-INFLUENZA VIRUS DRUG TARGETS” (INSTITUTE OF MICROBIOLOGY, CHINESE ACADEMY OF SCIENCES, priority 2017, published 2020)

What was measured:
ANP Y148F = ANP Y148F (Influenza A virus, UniProt P15682, Y148F)
BNP F209A = BNP F209A (Influenza B virus, UniProt P04665, F209A)

In the case of `COc1ccc2cc(C(C)C(=O)O)ccc2c1` (stereo not drawn) [naproxen, (+) α-methyl-6-methoxy-2-naphthaleneacetic acid], the “n (stoichiometry)” value (ANP Y148F) is reported as 0.10, the ΔH (ANP Y148F) is reported as -10.92 kcal/mol and the ΔS (ANP Y148F) is reported as −83.45 J/mol · K. The “n (stoichiometry)” value (BNP F209A) was 1.68, the ΔH (BNP F209A) was -0.167 kcal/mol and the ΔS (BNP F209A) was 102.6 J/mol · K.
